Values of other authors in US20240131064A1, “TREATMENT OF CANCER PATIENTS WITH TUMOR INFILTRATING LYMPHOCYTE THERAPIES IN COMBINATION WITH BRAF INHIBITORS AND/OR MEK INHIBITORS” (Iovance Biotherapeutics, Inc., priority 2020, published 2024).
Like-named read-outs stand apart in the source and are kept apart here.

Assays:
[1] = percent of patients
[2] = tested on: BRAF V600E mutation-positive, unresectable or metastatic melanoma; settings: 187 patients treated, no prior BRAF or MEK inhibitor

**Q.** What does the source list for “nivolumab: PD-1 inhibitor, heavy chain SEQ ID NO:158, light chain SEQ ID NO:159”?
**A.** rate of durable responses relative to aldesleukin treatment (metastatic melanoma; metastatic melanoma): approximately double; ORR (metastatic melanoma; previously treated patients): 32%; Treatment-related adverse events leading to discontinuation of therapy [1]: 7.7%

**Q.** Which “overall objective response rate (ORR)” value (metastatic melanoma; high-dose aldesleukin, metastatic melanoma) does the source give for “des-alanyl-1, serine-125 human IL-2 [aldesleukin]” here?
**A.** 16%

**Q.** And the “durable complete tumor regressions (CRs)” value (metastatic melanoma; high-dose aldesleukin, treated patients with metastatic melanoma)?
**A.** up to 6%

**Q.** With “ipilimumab: CTLA-4 inhibitor, heavy chain SEQ ID NO:208, light chain SEQ ID NO:209” as the compound, how does the “Treatment-related adverse events leading to discontinuation of therapy” value [1] read?
**A.** 14.8%

**Q.** With `CC(C)(C)c1nc(-c2cccc(NS(=O)(=O)c3c(F)cccc3F)c2F)c(-c2ccnc(N)n2)s1` [dabrafenib] as the compound, how does the “median duration of response (DOR)” value [2] read?
**A.** 5.6 months

**Q.** With “pembrolizumab: PD-1 inhibitor, heavy chain SEQ ID NO:168, light chain SEQ ID NO:169” as the compound, how does the ORR (metastatic melanoma; following prior therapy with ipilimumab) read?
**A.** 21%

**Q.** And the “rate of durable responses relative to aldesleukin treatment” value (metastatic melanoma; metastatic melanoma)?
**A.** approximately double
